Results as given in US11274082B2, “Tead inhibitors and uses thereof” (Ikena Oncology, Inc., priority 2019, dated 2022).
Like-named read-outs stand apart in the source and are kept apart here.

Experiments:
TEAD = TEAD reporter assay (Hippo Pathway TEAD Reporter - MCF7 cell line, luciferase); format: cell-based; conditions: Homo sapiens
Text: TEAD inhibition can be assayed using Hippo Pathway TEAD Reporter—MCF7 Cell Line (BPS Bioscience, Catalog #: 60618).
The TEAD Reporter—MCF7 cell line contains the firefly luciferase gene under the control of TEAD responsive elements stably integrated into the human breast cancer cell line, MCF7. Inside the cells, basal unphosphorylated YAP/TAZ remains in the nucleus and induces the constitutive expression of luciferase reporter. The cell line is validated for the inhibition of the expression of luciferase reporter by the activators of the Hippo pathway.
• 1) Harvest TEAD Reporter—MCF7 cells from culture in growth medium and seed cells at a density of 35,000 cells per well into white clear-bottom 96-well microplate in 45 μl of assay medium. • 2) Incubate cells at 37° C. in a CO2 incubator for overnight. • 3) Dilute the activators (H2O2 or okadaic acid) stock in assay medium. Add 5 μl of diluted activators to the wells. The final concentration of DMSO in assay medium is 0.1%. • 4) Add 5 μl of assay medium with same concentration of DMSO without activator to control wells. • 5) Add 50 μl of assay medium with DMSO to cell-free control wells (for determining background luminescence). • 6) Set up each treatment in at least triplicate. • 7) Incubate cells at 37° C. in a CO2 incubator for 5-6 hours. • 8) Perform luciferase assay using the ONE-Step™ Luciferase Assay System following the protocol provided: Add 100 μl of ONE-Step™ Luciferase reagent per well and rock at room temperature for ˜15 minutes. Measure luminescence using a luminometer. • 9) Data Analysis: Obtain the background-subtracted luminescence by subtracting the average background luminescence (cell-free control wells) from the luminescence reading of all wells.
(§1) Certain compounds were tested in TEAD reporter assay, and in H226 and H28. A: EC50<0.1 uM; B: 0.1 uM≤EC50≤0.5 uM; C: EC50>0.5 uM.

H226 = assay: Anti-proliferation assay in H226 cells; format: cell-based; conditions: Homo sapiens
Protocol: as §1
Individual cell lines were grown in medium according to supplier instructions and seeded into 96-well plates at a density that ensured logarithmic growth over 72 hours. TEAD inhibitor compounds were administered to cells at a top concentration of 10 μm and subsequently a 10 point 3-fold serial dilution was conducted. After 72 hours, proliferation was quantified using Cell TITERGLO™ (Promega, Inc.) and compared to vehicle control. IC50 and EC50 values were generated using XLFit curve fitting software.

[1] = TEAD Reporter - MCF7 cells, read-out: TEAD Reporter Assay EC50
[2] = NCI-H226, H226 cells, read-out: H226 EC50

Row | SMILES | EC50 (TEAD; [1]) [µM] | EC50 (H226; [2]) [µM] | EC50 (TEAD; MCF7, read-out: TEAD Reporter Assay EC50 (uM)) [µM] | EC50 (H226; NCI-H226, read-out: H226 EC50 (uM)) [µM]
1 | CNS(=O)(=O)c1cnc(N[C@H](C)c2ccccc2)c(-c2cn(C)cn2)c1 [I-35, N-Methyl-5-(1-methylimidazol-4-yl)-6-[[(1R)-1-phenylethyl]amino]pyridine-3-sulfonamide] | 0.1 to 0.5 | 0.1 to 0.5 |  | 
2 | CC[C@H](Nc1ccc(S(=O)(=O)NC)cc1-c1cn(C)cn1)c1ccccc1 [I-53, N-Methyl-3-(1-methylimidazol-4-yl)-4-[[(1S)-1-phenylpropyl]amino]benzenesulfonamide] | > 0.5 | > 0.5 |  | 
3 | CCNS(=O)(=O)c1ccc(NCc2ccccc2)c(-c2cn(C)cn2)c1 [I-41, 4-(Benzylamino)-N-ethyl-3-(1-methylimidazol-4-yl)benzenesulfonamide] | 0.1 to 0.5 | < 0.1 |  | 
4 | CNS(=O)(=O)c1ccc(Nc2cc(C(F)(F)F)ccn2)c(-c2cn(C(C)C)cn2)c1 [I-55, 3-(1-Isopropylimidazol-4-yl)-N-methyl-4-[[4-(trifluoromethyl)-2-pyridyl]amino]benzenesulfonamide] | 0.1 to 0.5 | < 0.1 |  | 
5 | CNS(=O)(=O)c1ccc(NCc2ccccc2)c(-c2cn(C(C)C)cn2)c1 [I-50, 4-(Benzylamino)-3-(1-isopropylimidazol-4-yl)-N-methyl-benzenesulfonamide] | 0.1 to 0.5 | 0.1 to 0.5 |  | 
6 | Cn1cnc(-c2cc(S(C)(=O)=O)ccc2Nc2cc(C(F)(F)F)ccn2)c1 [I-48, N-[2-(1-Methylimidazol-4-yl)-4-methylsulfonyl-phenyl]-4-(trifluoromethyl)pyridin-2-amine] | > 0.5 | 0.1 to 0.5 |  | 
7 | CNS(=O)(=O)c1ccc(NC(CO)c2ccccc2)c(-c2cn(C)cn2)c1 (stereo in doubt) [I-39, 4-[[(1S)-2-Hydroxy-1-phenyl-ethyl]amino]-N-methyl-3-(1-methylimidazol-4-yl)benzenesulfonamide] | > 0.5 | > 0.5 |  | 
8 | CNS(=O)(=O)c1ccc(N[C@@H](C)c2ccc(C(F)(F)F)cc2)c(-c2cn(C)cn2)c1 [I-57, N-Methyl-3-(1-methylimidazol-4-yl)-4-[[(1S)-1-[4-(trifluoromethyl)phenyl]ethyl]amino]benzenesulfonamide] | > 0.5 | > 0.5 |  | 
9 | COC(=O)c1ccc(NCc2ccccc2)c(-c2nnn(C)n2)c1 [I-26, Methyl 4-(benzylamino)-3-(2-methyltetrazol-5-yl)benzoate] | > 0.5 | > 0.5 |  | 
10 | CC[C@@H](Nc1ccc(S(=O)(=O)NC)cc1-c1cn(C)cn1)c1ccccc1 [I-45, N-Methyl-3-(1-methylimidazol-4-yl)-4-[[(1R)-1-phenylpropyl]amino]benzenesulfonamide] |  |  | 0.1 to 0.5 | 0.1 to 0.5
11 | CNS(=O)(=O)c1ccc(N[C@H]2CCCc3ccccc32)c(-c2cn(C)cn2)c1 [I-52, N-Methyl-3-(1-methylimidazol-4-yl)-4-[[(1S)-tetralin-1-yl]amino]benzenesulfonamide] | > 0.5 | > 0.5 |  | 
12 | Cn1cnc(-c2cc(S(N)(=O)=O)ccc2Nc2cc(C(F)(F)F)ccn2)c1 [I-49, 3-(1-Methylimidazol-4-yl)-4-[[4-(trifluoromethyl)-2-pyridyl]amino]benzenesulfonamide] | > 0.5 | 0.1 to 0.5 |  | 

The next lines start with results.

Row | EC50 (TEAD; [1]) [µM] | EC50 (H226; [2]) [µM] | SMILES | EC50 (TEAD; MCF7, read-out: TEAD Reporter Assay EC50 (uM)) [µM] | EC50 (H226; NCI-H226, read-out: H226 EC50 (uM)) [µM]
13 | < 0.1 | < 0.1 | CNS(=O)(=O)c1ccc(Nc2ccc(C(F)(F)F)nc2)c(-c2cn(C)cn2)c1 [I-75, N-Methyl-3-(1-methylimidazol-4-yl)-4-[[6-(trifluoromethyl)-3-pyridyl]amino]benzenesulfonamide] |  | 
14 | 0.1 to 0.5 | 0.1 to 0.5 | CNS(=O)(=O)c1ccc(NCc2ccc(OC(F)(F)F)cc2)c(-c2cn(C)cn2)c1 [I-60, N-Methyl-3-(1-methyl-1H-imidazol-4-yl)-4-((4-(trifluoromethoxy)benzyl)amino)benzenesulfonamide] |  | 
15 | < 0.1 | < 0.1 | CNS(=O)(=O)c1ccc(Nc2ccc(C(F)(F)F)cn2)c(-c2cn(Cc3ccccc3F)cn2)c1 [I-81, 3-[1-[(2-Fluorophenyl)methyl]imidazol-4-yl]-N-methyl-4-[[5-(trifluoromethyl)-2-pyridyl]amino]benzenesulfonamide] |  | 
16 | < 0.1 | 0.1 to 0.5 | CNS(=O)(=O)c1ccc(NCc2ccc3scnc3c2)c(-c2cn(C)cn2)c1 [I-72, 4-(1,3-Benzothiazol-5-ylmethylamino)-N-methyl-3-(1-methylimidazol-4-yl)benzenesulfonamide] |  | 
17 | 0.1 to 0.5 | < 0.1 | CNS(=O)(=O)c1ccc(NCc2ccc(C(F)(F)F)cn2)c(-c2cn(C)cn2)c1 [I-70, N-Methyl-3-(1-methylimidazol-4-yl)-4-[[5-(trifluoromethyl)-2-pyridyl]methylamino]benzenesulfonamide] |  | 
18 | < 0.1 | < 0.1 | CNS(=O)(=O)c1ccc(Nc2ccc(OC(F)(F)F)cn2)c(-c2cn(C)cn2)c1 [I-84, N-Methyl-3-(1-methylimidazol-4-yl)-4-[[5-(trifluoromethoxy)-2-pyridyl]amino]benzenesulfonamide] |  | 
19 | 0.1 to 0.5 | < 0.1 | CNS(=O)(=O)c1ccc(NCc2cccc(OC(F)(F)F)c2)c(-c2cn(C)cn2)c1 [I-69, A-Methyl-3-(1-methylimidazol-4-yl)-4-[[3-(trifluoromethoxy)phenyl]methylamino]benzenesulfonamide] |  | 
20 | < 0.1 | < 0.1 | CNS(=O)(=O)c1ccc(N[C@@H]2CCc3ccccc32)c(-c2cn(C)cn2)c1 (single isomer, unassigned) [I-59] |  | 
21 | 0.1 to 0.5 | 0.1 to 0.5 | CNS(=O)(=O)c1ccc(Nc2ccc(C(F)(F)F)cn2)c(-c2cn(Cc3ccccc3)cn2)c1 [I-71, 3-(1-Benzylimidazol-4-yl)-N-methyl-4-[[5-(trifluoromethyl)-2-pyridyl]amino]benzenesulfonamide] |  | 
22 | > 0.5 | 0.1 to 0.5 | CNS(=O)(=O)c1ccc(Nc2ccc(C#N)cn2)c(-c2cn(C)cn2)c1 [I-86, 4-[(5-Cyano-2-pyridyl)amino]-N-methyl-3-(1-methylimidazol-4-yl)benzenesulfonamide] |  | 
23 | 0.1 to 0.5 | 0.1 to 0.5 | CNS(=O)(=O)c1ccc(Nc2cc(C(F)(F)F)ccn2)c(-c2nnc(C)o2)c1 [I-62, N-Methyl-3-(5-methyl-1,3,4-oxadiazol-2-yl)-4-[[4-(trifluoromethyl)-2-pyridyl]amino]benzenesulfonamide] |  | 
24 | < 0.1 | < 0.1 | CNS(=O)(=O)c1ccc(NCc2ccc(C(F)(F)F)cc2F)c(-c2cn(C)cn2)c1 [I-68, 4-[[2-Fluoro-4-(trifluoromethyl)phenyl]methylamino]-N-methyl-3-(1-methylimidazol-4-yl)benzenesulfonamide] |  | 
25 | < 0.1 | < 0.1 | CCNS(=O)(=O)c1ccc(Nc2ccc(C(F)(F)F)cn2)c(-c2cn(C)cn2)c1 [I-65, N-ethyl-3-(1-methylimidazol-4-yl)-4-[[5-(trifluoromethyl)-2-pyridyl]amino]benzenesulfonamide] |  | 
26 | < 0.1 | < 0.1 | CNS(=O)(=O)c1ccc(Nc2ncc(C(F)(F)F)cn2)c(-c2cn(C)cn2)c1 [I-78, N-Methyl-3-(1-methylimidazol-4-yl)-4-[[5-(trifluoromethyl)pyrimidin-2-yl]amino]benzenesulfonamide] |  | 
27 | > 0.5 | 0.1 to 0.5 | CNS(=O)(=O)c1ccc(NCc2ccccc2)c(-c2nnc(C)o2)c1 [I-61, 4-(Benzylamino)-N-methyl-3-(5-methyl-1,3,4-oxadiazol-2-yl)benzenesulfonamide] |  | 
28 | 0.1 to 0.5 | < 0.1 | CNS(=O)(=O)c1ccc(N[C@@H](C)c2cccc(C(F)(F)F)c2)c(-c2cn(C)cn2)c1 [I-83, N-Methyl-3-(1-methylimidazol-4-yl)-4-[[(1S)-1-[3-(trifluoromethyl)phenyl]ethyl]amino]benzenesulfonamide] |  | 
29 | 0.1 to 0.5 | 0.1 to 0.5 | CNS(=O)(=O)c1ccc(N[C@H](C)c2cccc(C(F)(F)F)c2)c(-c2cn(C)cn2)c1 [I-63, N-Methyl-3-(1-methylimidazol-4-yl)-4-[[(1R)-1-[3-(trifluoromethyl)phenyl]ethyl]amino]benzenesulfonamide] |  | 
30 | > 0.5 | 0.1 to 0.5 | CC(C)NS(=O)(=O)c1ccc(Nc2cc(C(F)(F)F)ccn2)c(-c2cn(C)cn2)c1 [I-66, N-Isopropyl-3-(1-methylimidazol-4-yl)-4-[[4-(trifluoromethyl)-2-pyridyl]amino]benzenesulfonamide] |  | 
